PMC6081452, “Downstream Products are Potent Inhibitors of the Heparan Sulfate 2-O-Sulfotransferase” (Scientific Reports, 2018)

Molecular target: T1, non-glyc-HS2ST H142A (Gallus gallus, UniProt Q76KB1, H142A)
T1 construct: made in house; host or cells: E. coli Origami B (DE3)
T1 sequence (Q76KB1 69-356 H142A limits assumed): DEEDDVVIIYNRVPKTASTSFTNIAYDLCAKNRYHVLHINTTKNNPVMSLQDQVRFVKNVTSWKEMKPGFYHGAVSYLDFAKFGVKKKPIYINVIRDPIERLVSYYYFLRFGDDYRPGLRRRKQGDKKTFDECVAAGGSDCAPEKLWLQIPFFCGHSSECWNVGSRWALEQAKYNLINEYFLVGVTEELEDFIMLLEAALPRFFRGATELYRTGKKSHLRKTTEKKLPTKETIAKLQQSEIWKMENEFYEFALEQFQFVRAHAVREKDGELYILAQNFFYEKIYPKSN
Experiment: BLI equilibrium binding, non-glyc-HS2ST H142A
Parameters: species or system chicken
Conditions: BLI saturation binding curves, n = 3, ± standard error of fit
Text: To assess whether the inhibitory compounds interact with the active site, point mutations were introduced in non-glyc-HS2ST (Fig. 4a). Four mutants of the catalytic residue (H142A/E/R/K) were created, along with a mutation of the residue that facilitates 2-O-sulfation of IdoA residues (R189A)[27]. Additionally, a negative control (NC) was generated containing multiple mutations of positively charged residues (R189A, R80E, and R184E) that reduced the net charge of each protein monomer by 5. The extent that the mutations affected affinity provided an indication that the ligand had been bound in the active site (Table 1 and Supplementary Fig. 1). While R189A markedly diminished the affinity for all compounds, the NC mutations reduced affinity to immeasurable levels. Removal of the catalytic side chain (H142A) enhanced the affinity of each compound, compared to the WT, by approximately 2–3-fold. Addition of a positive charge at this location (H142K/R) further enhanced the affinity for each compound, so much so that a KD value could be measured even for 2. The H142E mutation diminished the affinity of 5 by half compared to WT, but its effects were less significant for binding to 3 or 4.
The chicken HS2ST-Maltose Binding Protein (MBP) fusion protein was expressed and purified according to previous studies. The fusion protein was transformed into E. coli Origami B (DE3) cells, cultured at 37 °C until OD600 reached 0.5, then induced with isopropyl-β-D-thiogalactopyranoside and allowed to grow overnight at 20 °C. Cells were sonicated, followed by a two-step purification procedure. Whole-cell supernatant was passed through an amylose column with Tris buffer (25 mM Tris, 500 mM NaCl, pH 7.5). An elution buffer consisted of Tris Buffer with 40 mM Maltose. The amylose column eluent was concentrated and loaded on a Superdex 200 Increase 10/300 GL with PBS buffer (10 mM sodium phosphate, 150 mM NaCl, pH 7.8) to separate trimeric protein from aggregate and independent MBP (Supplementary Fig. 4). All reported mutations formed homotrimeric complexes according to the SEC profiles, including the negative control (NC = R189A/R80E/R184E). Protein concentration was assessed via UV at 280 nm (MW of trimer ~210 KDa, extinction coefficient ~119,000 M^−1 cm^−1 according to ExPASy ProtParam webtool[56]). The trimeric protein preparation was adjusted to 5% glycerol and stored at −20 °C until use. Additional non-glyc-HS2ST constructs were created with the Q5® Mutagenesis kit (New England Biolabs Inc.; cat. # E0554S) and sequenced at the Georgia Genomics Facility at the University of Georgia.
The Octet® RED96 system (FortéBio Inc.) was employed to detect the affinity of the enzymes for specific HS targets. […]

| Substance | Kd [nM] |
| --- | --- |
| GlcNS-GlcA-GlcNS-IdoA2S-GlcNS-GlcA~ [Compound 2] | 460 ± 91 |
| GlcNS6S-GlcA-GlcNS6S-GlcA-GlcNS6S-GlcA~ [Compound 5] | 25 ± 2 |
| GlcNS6S-GlcA-GlcNS6S-IdoA2S-GlcNS6S-GlcA~ [Compound 3] | 20 ± 3 |
| GlcNS6S-GlcA-GlcNS3S6S-IdoA2S-GlcNS6S-GlcA~ [Compound 4] | 10 ± 2 |
